pEC50: −log10 of the molar value.
Target: T1, human mAChR M4 (Homo sapiens, UniProt P08173)
T1 construct: expressed in transfected cells; host or cells: CHO-K1 (ATCC), stably expressing hM4 and Gqi5
T1 sequence (P08173 1-479): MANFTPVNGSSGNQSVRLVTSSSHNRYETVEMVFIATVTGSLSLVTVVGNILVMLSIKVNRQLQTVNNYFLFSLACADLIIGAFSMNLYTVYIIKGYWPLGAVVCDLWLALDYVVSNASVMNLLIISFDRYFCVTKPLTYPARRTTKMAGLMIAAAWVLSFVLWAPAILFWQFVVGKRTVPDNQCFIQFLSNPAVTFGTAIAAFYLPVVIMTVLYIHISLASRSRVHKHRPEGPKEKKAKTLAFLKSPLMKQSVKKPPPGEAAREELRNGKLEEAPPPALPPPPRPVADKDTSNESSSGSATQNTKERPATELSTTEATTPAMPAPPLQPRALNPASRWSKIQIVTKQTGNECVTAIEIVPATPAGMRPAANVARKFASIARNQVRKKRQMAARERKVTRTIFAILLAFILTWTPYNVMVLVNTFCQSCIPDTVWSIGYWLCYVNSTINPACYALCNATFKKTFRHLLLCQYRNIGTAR
Assay: mAChR M4 cell-based functional assay: calcium flux (Fluo-4, FDSS), positive allosteric modulator activity on the EC20 acetylcholine response, hM4-Gqi5 CHO-K1 cells
Conditions: for Emax at 30 µM: CHO-K1, human M4, % ACh maximum at 30 μM; for pEC50: human M4, PAM activity on EC20 acetylcholine response, calcium flux, read-out: Human M4 EC50
Outline: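 Potentiation was taken as the concentration-dependent rise in the EC20 acetylcholine calcium response, fitted by a four-parameter logistic with EC20 as baseline. Fluo-4-loaded hM4-Gqi5 CHO-K1 cells received 11-point, threefold-diluted compound before acetylcholine at 144 s; FDSS read at 1 Hz.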

SMILES	Emax at 30 µM [%]	pEC50
Cn1nccc1Nc1cnc2c(c1)CN(c1nc(NC3CCCOC3)nc3ccc(F)cc13)CC2 (stereo not shown) [Compound 213, 6-fluoro-4-[3-[(2-methylpyrazol-3-yl)amino]-7,8-dihydro-5H-1,6-naphthyridin-6-yl]-N-tetrahydropyran-3-yl-quinazolin-2-amine]	86	6.31
Cn1nccc1Nc1cnc2c(c1)CN(c1nc(N3CCOC(C)(C)C3)nc3ccc(F)cc13)CC2 [Compound 214, 6-[2-(2,2-dimethylmorpholin-4-yl)-6-fluoro-quinazolin-4-yl]-N-(2-methylpyrazol-3-yl)-7,8-dihydro-5H-1,6-naphthyridin-3-amine]	70	6.08
FC(F)(F)c1ccc2ncnc(N3CCc4ncc(N5CCOc6ncccc65)cc4C3)c2c1 [Compound 215, 1-(6-(6-(trifluoromethyl)quinazolin-4-yl)-5,6,7,8-tetrahydro-1,6-naphthyridin-3-yl)-2,3-dihydro-1H-pyrido[2,3-b][1,4]oxazine]	107	5.79
Fc1ccc2ncnc(N3CCc4ncc(N5CCO[C@H](c6ccccc6)C5)cc4C3)c2c1 [Compound 216, (R)-4-(6-(6-fluoroquinazolin-4-yl)-5,6,7,8-tetrahydro-1,6-naphthyridin-3-yl)-2-phenylmorpholine]	81	5.98
Cc1nc(N2CCc3ncc(N4CCO[C@H](c5ccccc5)C4)cc3C2)c2cc(F)ccc2n1 [Compound 217, (R)-4-(6-(6-fluoro-2-methylquinazolin-4-yl)-5,6,7,8-tetrahydro-1,6-naphthyridin-3-yl)-2-phenylmorpholine]	84	5.77
Cc1nn(-c2cnc3c(c2)CN(c2ncnc4ccc(F)cc24)CC3)c2cccnc12 [Compound 218, 6-fluoro-4-(3-(3-methyl-1H-pyrazolo[4,3-b]pyridin-1-yl)-7,8-dihydro-1,6-naphthyridin-6(5H)-yl)quinazoline]	73	6.24
Cc1nc2c(cc1N1CCOC(C)(C)C1)CN(c1ncnc3ccc(F)cc13)CC2 [Compound 219, 4-(6-(6-fluoroquinazolin-4-yl)-2-methyl-5,6,7,8-tetrahydro-1,6-naphthyridin-3-yl)-2,2-dimethylmorpholine]	60	5.86
Fc1ccc2ncnc(N3CCc4ncc(N5CCO[C@@H](c6ccccc6)C5)cc4C3)c2c1 [Compound 220, (S)-4-(6-(6-fluoroquinazolin-4-yl)-5,6,7,8-tetrahydro-1,6-naphthyridin-3-yl)-2-phenylmorpholine]	59	5.71
COc1ccc2nc(O)nc(N3CCc4ncc(C(F)(F)F)cc4C3)c2c1 [Compound 221, 6-methoxy-4-(3-(trifluoromethyl)-7,8-dihydro-1,6-naphthyiridin-6(5H)-yl)quinazolin-2-ol]	44	5.83
Cc1nc(N2CCc3ncc(N4CCO[C@@H](c5ccccc5)C4)cc3C2)c2cc(F)ccc2n1 [Compound 222, (S)-4-(6-(6-fluoro-2-methylquinazolin-4-yl)-5,6,7,8-tetrahydro-1,6-naphthyridin-3-yl)-2-phenylmorpholine]	50	5.46
Fc1ccc2ncnc(N3CCc4ncc(N5CCOC(c6ccccn6)C5)cc4C3)c2c1 (stereo not shown) [Compound 223, 4-(6-(6-fluoroquinazolin-4-yl)-5,6,7,8-tetrahydro-1,6-naphthyridin-3-yl)-2-(pyridin-2-yl)morpholine]	65	6.17
Cc1nc(N2CCc3ncc(N4CCOC(c5ccccn5)C4)cc3C2)c2cc(F)ccc2n1 (stereo not shown) [Compound 224, 4-(6-(6-fluoro-2-methylquinazolin-4-yl)-5,6,7,8-tetrahydro-1,6-naphthyridin-3-yl)-2-(pyridin-2-yl)morpholine]	72	6.03
CC1CN(c2cnc3c(c2)CN(c2ncnc4ccc(F)cc24)CC3)c2ccnn2C1 (stereo not shown) [Compound 225, 6-fluoro-4-(3-(6-methyl-6,7-dihydropyrazolo[1,5-a]pyrimidin-4(5H)-yl)-7,8-dihydro-1,6-naphthyridin-6(5H)-yl)quinazoline]	94	7.15
Cc1cc2n(n1)CCCN2c1cnc2c(c1)CN(c1ncnc3ccc(F)cc13)CC2 [Compound 226, 6-fluoro-4-(3-(2-methyl-6,7-dihydropyrazolo[1,5-a]pyrimidin-4(5H)-yl)-7,8-dihydro-1,6-naphthyridin-6(5H)-yl)quinazoline]	103	7.22
CC1CCN(c2cnc3c(c2)CN(c2ncnc4ccc(F)cc24)CC3)c2ccnn21 (stereo not shown) [Compound 227, 6-fluoro-4-(3-(7-methyl-6,7-dihydropyrazolo[1,5-a]pyrimidin-4(5H)-yl)-7,8-dihydro-1,6-naphthyridin-6(5H)-yl)quinazoline]	75	7.10
[2H]c1nc2c(cc1N1CCOC(C)(C)C1)CN(c1ncnc3ccc(F)cc13)CC2 [Compound 228, 4-(6-(6-fluoroquinazolin-4-yl)-5,6,7,8-tetrahydro-1,6-naphthyridin-3-yl-2-d)-2,2-dimethylmorpholine]	97	7.40
Fc1ccc2ncnc(N3CCc4ncc(N5CCOC(c6cccnc6)C5)cc4C3)c2c1 (stereo not shown) [Compound 229, 4-(6-(6-fluoroquinazolin-4-yl)-5,6,7,8-tetrahydro-1,6-naphthyridin-3-yl)-2-(pyridin-3-yl)morpholine]	86	6.29
Cc1nc(N2CCc3ncc(N4CCOC(c5cccnc5)C4)cc3C2)c2cc(F)ccc2n1 (stereo not shown) [Compound 230, 4-(6-(6-fluoro-2-methylquinazolin-4-yl)-5,6,7,8-tetrahydro-1,6-naphthyridin-3-yl)-2-(pyridin-3-yl)morpholine]	86	6.30
Clc1ccc2ncnc(N3CCc4ncc(C5CC5)cc4C3)c2c1 [Compound 231, 6-chloro-4-(3-cyclopropyl-7,8-dihydro-1,6-naphthyridin-6(5H)-yl)quinazoline]	92	7.30
Fc1ccccc1Oc1cnc2c(c1)CN(c1ncnc3ccc(Cl)cc13)CC2 [Compound 232, 6-chloro-4-(3-(2-fluorophenoxy)-7,8-dihydro-1,6-naphthyridin-6(5H)-yl)quinazoline]	77	6.13
CC1CN(c2ncnc3ccc(F)cc23)Cc2cc(NC3CCCC3)cnc21 (stereo not shown) [Compound 233, N-cyclopentyl-6-(6-fluoroquinazolin-4-yl)-8-methyl-5,6,7,8-tetrahydro-1,6-naphthyridin-3-amine]	84	6.39
CC1CN(c2ncnc3ccc(F)cc23)Cc2cc(Nc3cccnc3)cnc21 (stereo not shown) [Compound 234, 6-(6-fluoroquinazolin-4-yl)-8-methyl-N-(pyridin-3-yl)-5,6,7,8-tetrahydro-1,6-naphthyridin-3-amine]	86	6.96
CC1CN(c2ncnc3ccc(F)cc23)Cc2cc(N(c3cccnc3)c3cccnc3)cnc21 (stereo not shown) [Compound 235, 6-(6-fluoroquinazolin-4-yl)-8-methyl-N,N-di(pyridin-3-yl)-5,6,7,8-tetrahydro-1,6-naphthyridin-3-amine]	77	6.20
CC1CN(c2ncnc3ccc(F)cc23)Cc2cc(N3CCOCC3)cnc21 (stereo not shown) [Compound 236, 4-(6-(6-fluoroquinazolin-4-yl)-8-methyl-5,6,7,8-tetrahydro-1,6-naphthyridin-3-yl)morpholine]	86	6.85
CC1CN(c2ncnc3ccc(F)cc23)Cc2cc(Nc3ncnc4ccc(F)cc34)cnc21 (stereo not shown) [Compound 237, 6-fluoro-N-(6-(6-fluoroquinazolin-4-yl)-8-methyl-5,6,7,8-tetrahydro-1,6-naphthyridin-3-yl)quinazolin-4-amine]	55	5.85
Fc1cc2ncnc(N3CCc4ncc(-n5cccn5)cc4C3)c2cc1F [Compound 238, 4-(3-(1H-pyrazol-1-yl)-7,8-dihydro-1,6-naphthyridin-6(5H)-yl)-6,7-difluoroquinazoline]	65	6.66
Cn1nccc1-c1cnc2c(c1)CN(c1ncnc3cc(F)c(F)cc13)CC2 [Compound 239, 6,7-difluoro-4-(3-(1-methyl-1H-pyrazol-5-yl)-7,8-dihydro-1,6-naphthyridin-6(5H)-yl)quinazoline]	73	6.10
Cc1noc(C)c1-c1cnc2c(c1)CN(c1ncnc3cc(F)c(F)cc13)CC2 [Compound 240, 4-(6-(6,7-difluoroquinazolin-4-yl)-5,6,7,8-tetrahydro-1,6-naphthyridin-3-yl)-3,5-dimethylisoxazole]	79	6.68
C[C@@H]1CN(c2cnc3c(c2)CN(c2ncnc4cc(F)c(F)cc24)CC3)CCO1 [Compound 241, (R)-4-(6-(6,7-difluoroquinazolin-4-yl)-5,6,7,8-tetrahydro-1,6-naphthyridin-3-yl)-2-methylmorpholine]	77	7.10

Source: patent US20250026752A1, “POSITIVE ALLOSTERIC MODULATORS OF THE MUSCARINIC ACETYLCHOLINE RECEPTOR M4” (Vanderbilt University, priority 2021, published 2025)
